# Assay: recombinant barcode read abundance after kanamycin selection (control-corrected) (log10(CPM+1)); higher = more efficient recombination; sequences stand for … in AGTGCAGAGAAAATCGGCCAGTTTTCTCTGCCTGCAGTCCGCATGCCGT…AGATTTATGCAGCGGACTGCCTTTCTCCCAAAGTGATAAACCGGACAGTATCATGGACCGGTTTTCCCGGTAATCCGTATTTGCAAGGTTGGTTTCACT; site = the 11-nt target
# Method in brief: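 Oligos holding a promoter, target, barcode and the J23119-driven first 104 bases of the bridge RNA were Gibson-cloned into a vector that supplied the other 73 bp plus a T7-inducible recombinase. This library was co-electroporated with a donor plasmid into E. coli. Two replicates went on chloramphenicol/ampicillin LB agar (control) and two on chloramphenicol/ampicillin/kanamycin with 0.1 mM IPTG. Recombination efficiency is read from averaged, control-corrected barcode counts per million at recombinant junctions, reported as log10(CPM+1).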
# 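Further: IS621 recombinase and bridge RNA in Escherichia coli cells.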
row,Sequence,recombinant barcode read abundance (log10)
1,ATGAGGCCTTGGGTTCTAACCTGTTGCCT (site CTGAGGCCTAG),0.115
2,ATGAGGCCTTGGGTTCTAACCTGTTGCCT (site GTGAGGCCTAG),0.173
3,ATGAGGCCTTGGGTTCTAACCTGTTGCCT (site TTGAGGCCTAG),0.209
4,ATGCAAGCTTGGGTTCTAACCTGTTGCCT (site ATGCAAACTAG),0.898
5,ATGCAAGCTTGGGTTCTAACCTGTTGCCT (site ATGCAACCTAG),0.0657
6,ATGCAAGCTTGGGTTCTAACCTGTTGCCT (site ATGCAAGCTAG),1.48
7,ATGCAAGCTTGGGTTCTAACCTGTTGCCT (site ATGCAATCTAG),0.234
8,ATGCATCCTTGGGTTCTAACCTGTTGCCT (site AAGCATCCTAG),0.0651
9,ATGCATCCTTGGGTTCTAACCTGTTGCCT (site ACGCATCCTAG),0.0924
10,ATGCATCCTTGGGTTCTAACCTGTTGCCT (site AGGCATCCTAG),0
11,ATGCATCCTTGGGTTCTAACCTGTTGCCT (site ATGCATCCTAG),1.99
12,ATGCCATCTTGGGTTCTAACCTGTTGCCT (site ATACCATCTAG),0.434
13,ATGCCATCTTGGGTTCTAACCTGTTGCCT (site ATCCCATCTAG),0.885
14,ATGCCATCTTGGGTTCTAACCTGTTGCCT (site ATGCCATCTAG),0.503
15,ATGCCATCTTGGGTTCTAACCTGTTGCCT (site ATTCCATCTAG),0.149
16,ATGGACACTTGGGTTCTAACCTGTTGCGT (site ATGGACACTAC),1.93
17,ATGGACACTTGGGTTCTAACCTGTTGCGT (site GACTGGCCTCT),0.133
18,ATGGCGCCTTGGGTTCTAACCTGTTGCCT (site AAGGCGCCTAG),0.296
19,ATGGCGCCTTGGGTTCTAACCTGTTGCCT (site ACGGCGCCTAG),0.846
20,ATGGCGCCTTGGGTTCTAACCTGTTGCCT (site AGGGCGCCTAG),0.183
21,ATGGCGCCTTGGGTTCTAACCTGTTGCCT (site ATGGCGCCTAG),0.856
22,ATTAAGTCTTGGGTTCTAACCTGTTGCCT (site AATAAGTCTAG),0.0662
23,ATTAAGTCTTGGGTTCTAACCTGTTGCCT (site ACTAAGTCTAG),0.08
24,ATTAAGTCTTGGGTTCTAACCTGTTGCCT (site AGTAAGTCTAG),0.0808
25,ATTAAGTCTTGGGTTCTAACCTGTTGCCT (site ATTAAGTCTAG),0.359
26,ATTAGGACTTGGGTTCTAACCTGTTGCTG (site ATTAGGACTCA),2.12

row,Sequence,recombinant barcode read abundance (log10)
1,ATTAGGACTTGGGTTCTAACCTGTTGCTG (site ATTAGGACTCT),1.56
2,ATTCAGACTTGGGTTCTAACCTGTTGCGG (site ATCCAGGCTCC),0.113
3,ATTCAGACTTGGGTTCTAACCTGTTGCGG (site ATTCAGACTCC),2.33
4,ATTCCATCTTGGGTTCTAACCTGTTGCCT (site ATACCATCTAG),0.57
5,ATTCCATCTTGGGTTCTAACCTGTTGCCT (site ATCCCATCTAG),0.281
6,ATTCCATCTTGGGTTCTAACCTGTTGCCT (site ATGCCATCTAG),0.12
7,ATTCCATCTTGGGTTCTAACCTGTTGCCT (site ATTCCATCTAG),0.538
8,ATTGCTACTTGGGTTCTAACCTGTTGCCA (site ATTGCTACTTG),0.122
9,ATTGCTACTTGGGTTCTAACCTGTTGCCA (site GAACAGCCTAC),0.143
10,ATTGGCTCTTGGGTTCTAACCTGTTGCCT (site ATTGGATCTAG),0.339
11,ATTGGCTCTTGGGTTCTAACCTGTTGCCT (site ATTGGCTCTAG),0.684
12,ATTGGCTCTTGGGTTCTAACCTGTTGCCT (site ATTGGGTCTAG),0.0639
13,ATTGGCTCTTGGGTTCTAACCTGTTGCCT (site ATTGGTTCTAG),0.0735
14,ATTGGTCCTTGGGTTCTAACCTGTTGCAT (site ATTGCTCCTAG),0.364
15,ATTGGTCCTTGGGTTCTAACCTGTTGCAT (site ATTGGTCCTAT),1.92
16,ATTTCGACTTGGGTTCTAACCTGTTGCGG (site ATTTCGACTCC),0.713
17,ATTTCGACTTGGGTTCTAACCTGTTGCGG (site GCAGGTGCTAA),0.021
18,ATTTCTACTTGGGTTCTAACCTGTTGCGA (site ATTTCTACTTC),0.194
19,ATTTCTACTTGGGTTCTAACCTGTTGCGA (site GTTTCTACTTA),0.102
20,ATTTGGACTTGGGTTCTAACCTGTTGCCT (site ATTTGAACTAG),0.173
21,ATTTGGACTTGGGTTCTAACCTGTTGCCT (site ATTTGCACTAG),0.0773
22,ATTTGGACTTGGGTTCTAACCTGTTGCCT (site ATTTGGACTAG),0.111
23,ATTTGGACTTGGGTTCTAACCTGTTGCCT (site ATTTGTACTAG),0.0943
24,CAAAAGGCTTGGGTTCTAACCTGTTGCCT (site ATCGTACCTTA),0.469
25,CAAAAGGCTTGGGTTCTAACCTGTTGCCT (site CAAAAGGCTAG),0.0565
26,CAAACAACTTGGGTTCTAACCTGTTGCCT (site CAAACAACTAG),0.235

row,Sequence,recombinant barcode read abundance (log10)
1,CAAACAACTTGGGTTCTAACCTGTTGCCT (site CAAACACCTAG),0.188
2,CAAACAACTTGGGTTCTAACCTGTTGCCT (site CAAACAGCTAG),0.101
3,CAAACAACTTGGGTTCTAACCTGTTGCCT (site CAAACATCTAG),0.133
4,CAAACTACTTGGGTTCTAACCTGTTGCTA (site CAAACTACTGT),0.011
5,CAAACTACTTGGGTTCTAACCTGTTGCTA (site CAAACTACTTA),0.386
6,CAAACTCCTTGGGTTCTAACCTGTTGCAT (site CAAACTCCTAA),0.116
7,CAAACTCCTTGGGTTCTAACCTGTTGCAT (site CAAACTCCTAC),0.0268
8,CAAACTCCTTGGGTTCTAACCTGTTGCAT (site CAAACTCCTAG),0.0257
9,CAAACTCCTTGGGTTCTAACCTGTTGCAT (site CAAACTCCTAT),0.713
10,CAAACTCCTTGGGTTCTAACCTGTTGCCT (site CAAACTCCTAA),0.137
11,CAAACTCCTTGGGTTCTAACCTGTTGCCT (site CAAACTCCTAC),0.0217
12,CAAACTCCTTGGGTTCTAACCTGTTGCCT (site CAAACTCCTAG),0.238
13,CAAACTCCTTGGGTTCTAACCTGTTGCCT (site CAAACTCCTAT),0.067
14,CAAACTCCTTGGGTTCTAACCTGTTGCTT (site CAAACTCCTAA),0.191
15,CAAACTCCTTGGGTTCTAACCTGTTGCTT (site CAAACTCCTAC),0.0428
16,CAAACTCCTTGGGTTCTAACCTGTTGCTT (site CAAACTCCTAG),0.221
17,CAAACTCCTTGGGTTCTAACCTGTTGCTT (site CAAACTCCTAT),0.0809
18,CAAAGACCTTGGGTTCTAACCTGTTGCGG (site AAAATACCTCC),0.14
19,CAAAGACCTTGGGTTCTAACCTGTTGCGG (site CAAAGACCTCC),2.06
20,CAAAGATCTTGGGTTCTAACCTGTTGCTT (site CAAAGATCTAA),1.03
21,CAAAGATCTTGGGTTCTAACCTGTTGCTT (site CACAGATCTAA),0.046
22,CAAAGATCTTGGGTTCTAACCTGTTGCTT (site CAGAGATCTAA),0.0421
23,CAAAGATCTTGGGTTCTAACCTGTTGCTT (site CATAGATCTAA),0.108
24,CAAAGGCCTTGGGTTCTAACCTGTTGCCT (site CAAAGGCCTAG),0.173
25,CAAAGGCCTTGGGTTCTAACCTGTTGCCT (site CAACGGCCTAG),0.0335

# Reference: the supplement of paper PMC11208160
